“And” between values parts separate entries of the source, which are not always exact repeats. Equal values may be shown once. Records with an inconclusive call do not appear.
Tested on: CD8F1 mice, subcutaneous mammary adenocarcinoma, T/C%
Assay: NCI In Vivo Anticancer Drug Screen. Data for tumor model Mammary Adenocarcinoma CD8F1 (subcutaneous) in CD8F1
Details: higher = larger tumour
Outline: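 Antitumor activity is assessed in transplantable-tumor mice by comparing the treated group with a vehicle-treated control group. Survival or tumor size serves as the measure, reported as T divided by C.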

[1] = endpoint: median tumor weight (est.), dose: 6.25 mg/kg/injection, schedule: Q07DX005 (ip), vehicle: Klucel (hydroxypropylcellulose) (HPC)
[2] = endpoint: median tumor weight (est.), dose: 12.5 mg/kg/injection, schedule: Q07DX005 (ip), vehicle: Klucel (hydroxypropylcellulose) (HPC)
[3] = endpoint: median tumor weight (est.), dose: 25.0 mg/kg/injection, schedule: Q07DX005 (ip), vehicle: Klucel (hydroxypropylcellulose) (HPC)
[4] = endpoint: median tumor weight (est.), dose: 100.0 mg/kg/injection, schedule: Q07DX005 (ip), vehicle: Klucel (hydroxypropylcellulose) (HPC)

`Nc1ncn(C2OC(CO)C(O)C2O)c(=O)n1` (configuration not stated) was tested, and the T/C (endpoint: mean tumor weight (est.), dose: 2.0 mg/kg/injection, schedule: Q07DX003 (ip), vehicle: other) was 58 % of control, the T/C (endpoint: mean tumor weight (est.), dose: 8.0 mg/kg/injection, schedule: Q07DX003 (ip), vehicle: other) was 32 % of control and the T/C (endpoint: median tumor weight (est.), dose: 1.0 mg/kg/injection, schedule: Q07DX005 (ip), vehicle: saline) was 63 % of control. The T/C (endpoint: median tumor weight (est.), dose: 2.0 mg/kg/injection, schedule: Q07DX005 (ip), vehicle: saline) was 81 % of control, the T/C (endpoint: median tumor weight (est.), dose: 4.0 mg/kg/injection, schedule: Q07DX005 (ip), vehicle: saline) was 22 % of control and the T/C (endpoint: median tumor weight (est.), dose: 8.0 mg/kg/injection, schedule: Q07DX005 (ip), vehicle: saline) was 20 % of control. For the same molecule, the T/C (endpoint: median tumor weight (est.), dose: 8.0 mg/kg/injection, schedule: Q07DX005 (ip), vehicle: suspension in saline) was 22 % of control, the T/C (endpoint: median tumor weight (est.), dose: 16.0 mg/kg/injection, schedule: Q07DX005 (ip), vehicle: saline) was 3 % of control and the T/C (endpoint: median tumor weight (est.), dose: 16.0 mg/kg/injection, schedule: Q07DX005 (ip), vehicle: suspension in saline) was 2 % of control. For the same molecule, the T/C (endpoint: median tumor weight change, dose: 3.75 mg/kg/injection, schedule: Q01DX001 (ip), vehicle: saline) was 89 % of control, the T/C (endpoint: median tumor weight change, dose: 7.5 mg/kg/injection, schedule: Q01DX001 (ip), vehicle: saline) was 45 % of control and the T/C (endpoint: median tumor weight change, dose: 15.0 mg/kg/injection, schedule: Q01DX001 (ip), vehicle: saline) was 38 % of control. The T/C (endpoint: median tumor weight change, dose: 30.0 mg/kg/injection, schedule: Q01DX001 (ip), vehicle: saline) was 36 % of control, the T/C (endpoint: median tumor weight change, dose: 62.5 mg/kg/injection, schedule: Q01DX001 (ip), vehicle: saline) was 123 % of control and the T/C (endpoint: median tumor weight change, dose: 125.0 mg/kg/injection, schedule: Q01DX001 (ip), vehicle: saline) was 103 % of control. For the same molecule, the T/C (endpoint: median tumor weight change, dose: 135.0 mg/kg/injection, schedule: Q01DX001 (ip), vehicle: saline) was 44 % of control, the T/C (endpoint: median tumor weight change, dose: 250.0 mg/kg/injection, schedule: Q01DX001 (ip), vehicle: saline) was 86 % of control and the T/C (endpoint: median tumor weight change, dose: 500.0 mg/kg/injection, schedule: Q01DX001 (ip), vehicle: saline) was 106 % of control. For the same molecule, the T/C (endpoint: median tumor weight change, dose: 600.0 mg/kg/injection, schedule: Q01DX001 (ip), vehicle: suspension in saline) was 17 % of control, the T/C (endpoint: median tumor weight change, dose: 1000.0 mg/kg/injection, schedule: Q01DX001 (ip), vehicle: saline) was 103 % of control and the T/C (endpoint: median tumor weight change, dose: 1350.0 mg/kg/injection, schedule: Q01DX001 (ip), vehicle: suspension in saline) was -11 % of control. For the same molecule, the T/C (endpoint: median tumor weight change, dose: 1800.0 mg/kg/injection, schedule: Q01DX001 (ip), vehicle: suspension in saline) was 60 % of control, the T/C (endpoint: median tumor weight change, dose: 2025.0 mg/kg/injection, schedule: Q01DX001 (ip), vehicle: suspension in saline) was 16 % of control and the T/C (endpoint: median tumor weight change, dose: 3600.0 mg/kg/injection, schedule: Q01DX001 (ip), vehicle: suspension in saline) was 43 % of control.
In the case of `COc1ccc(C(N)=O)cc1N=NN(C)C`, the T/C [1] was 175 % of control.
For `O=C1C=CC(=O)N1c1ccc(Cl)cc1`, the T/C (endpoint: median tumor weight (est.), dose: 5.0 mg/kg/injection, schedule: Q07DX003 (ip), vehicle: Klucel (hydroxypropylcellulose) (HPC)) was 65 % of control and the T/C (endpoint: median tumor weight (est.), dose: 20.0 mg/kg/injection, schedule: Q07DX003 (ip), vehicle: Klucel (hydroxypropylcellulose) (HPC)) was 109 % of control.
With `O=C(O)C1CC(c2ccccc2)=NN1c1ccccc1` (configuration not stated) the T/C (endpoint: median tumor weight (est.), dose: 12.5 mg/kg/injection, schedule: Q07DX005 (ip), vehicle: water) was 101 % of control, the T/C (endpoint: median tumor weight (est.), dose: 25.0 mg/kg/injection, schedule: Q07DX005 (ip), vehicle: water) was 83 % of control and the T/C (endpoint: median tumor weight (est.), dose: 50.0 mg/kg/injection, schedule: Q07DX005 (ip), vehicle: water) was 83 % of control. The T/C (endpoint: median tumor weight (est.), dose: 100.0 mg/kg/injection, schedule: Q07DX005 (ip), vehicle: water) was 78 % of control and the T/C (endpoint: median tumor weight (est.), dose: 200.0 mg/kg/injection, schedule: Q07DX005 (ip), vehicle: water) was 70 % of control.
With `CN(C)CCCNc1c2ccccc2nc2cccc([N+](=O)[O-])c12` the T/C (endpoint: median tumor weight (est.), dose: 0.06 mg/kg/injection, schedule: Q07DX004 (ip), vehicle: saline) was 90 % of control and the T/C (endpoint: median tumor weight (est.), dose: 15.0 micrograms/kg/injection, schedule: Q07DX005 (ip), vehicle: saline) was 86 % of control.
`COC(=O)C12OCC34C(CC5C(C)=CC(=O)C(O)C5(C)C3C(O)C1O)OC(=O)C(OC(=O)CC(C)C)C24` (configuration not stated) was tested, and the T/C (endpoint: median tumor weight (est.), dose: 0.13 mg/kg/injection, schedule: Q07DX005 (ip), vehicle: saline + alcohol) was 107 % of control, the T/C (endpoint: median tumor weight (est.), dose: 0.5 mg/kg/injection, schedule: Q07DX005 (ip), vehicle: saline + alcohol) was 82 % of control and the T/C (endpoint: median tumor weight (est.), dose: 1.0 mg/kg/injection, schedule: Q07DX005 (ip), vehicle: saline + alcohol) was 64 % of control. The T/C (endpoint: median tumor weight (est.), dose: 2.0 mg/kg/injection, schedule: Q07DX005 (ip), vehicle: saline + alcohol) was 47 % of control.
In the case of `C/C=C\C1OC1(C)c1cc(=O)c2c(C)cc3c(c2o1)C(=O)c1c(O)c(C2CC(C)(N(C)C)C(OC(C)=O)C(C)O2)cc(C2CC(N(C)C)C(O)C(C)O2)c1C3=O` (configuration not stated), the T/C (endpoint: median tumor weight change, dose: 0.31 mg/kg/injection, schedule: Q01DX001 (ip), vehicle: saline + alcohol) was 69 % of control, the T/C (endpoint: median tumor weight change, dose: 0.62 mg/kg/injection, schedule: Q01DX001 (ip), vehicle: saline + alcohol) was 85 % of control and the T/C (endpoint: median tumor weight change, dose: 1.25 mg/kg/injection, schedule: Q01DX001 (ip), vehicle: saline + alcohol) was 70 % of control. For the same molecule, the T/C (endpoint: median tumor weight change, dose: 2.5 mg/kg/injection, schedule: Q01DX001 (ip), vehicle: saline + alcohol) was 31 % of control, the T/C (endpoint: median tumor weight change, dose: 5.0 mg/kg/injection, schedule: Q01DX001 (ip), vehicle: saline + alcohol) was 34 % of control and the T/C (endpoint: median tumor weight change, dose: 10.0 mg/kg/injection, schedule: Q01DX001 (ip), vehicle: saline + alcohol) was 25 % of control.
In the case of `O=NN(CCF)C(=O)NC1CCCCC1`, the T/C (endpoint: median tumor weight change, dose: 4.0 mg/kg/injection, schedule: Q01DX001 (ip), vehicle: Klucel (hydroxypropylcellulose) (HPC)) was 87 % of control, the T/C (endpoint: median tumor weight change, dose: 16.0 mg/kg/injection, schedule: Q01DX001 (ip), vehicle: Klucel (hydroxypropylcellulose) (HPC)) was 44 % of control and the T/C (endpoint: median tumor weight change, dose: 31.0 mg/kg/injection, schedule: Q01DX001 (ip), vehicle: Klucel (hydroxypropylcellulose) (HPC)) was 45 % of control. The T/C (endpoint: median tumor weight change, dose: 62.5 mg/kg/injection, schedule: Q01DX001 (ip), vehicle: Klucel (hydroxypropylcellulose) (HPC)) was 30 % of control.
For `O=C(NC1CCCCC1)OCc1c(COC(=O)NC2CCCCC2)c(-c2ccc(Cl)c(Cl)c2)n2c1CCC2`, the T/C (endpoint: median tumor weight (est.), dose: 25.0 mg/kg/injection, schedule: Q07DX005 (ip), vehicle: saline with Tween-80) was 94 % of control, the T/C (endpoint: median tumor weight (est.), dose: 50.0 mg/kg/injection, schedule: Q07DX005 (ip), vehicle: saline with Tween-80) was 72 % of control and the T/C (endpoint: median tumor weight (est.), dose: 100.0 mg/kg/injection, schedule: Q07DX005 (ip), vehicle: saline with Tween-80) was 20 % of control. The T/C (endpoint: median tumor weight (est.), dose: 200.0 mg/kg/injection, schedule: Q07DX005 (ip), vehicle: saline with Tween-80) was 28 % of control.
With `COc1cccc2c1C(=O)c1c(O)c3c(c(O)c1C2=O)C[C@@](O)(/C(C)=N/NC(=O)c1ccccc1)C[C@@H]3OC1CC(N)C(O)C(C)O1` (some centres not stated) the T/C (endpoint: median tumor weight (est.), dose: 3.12 mg/kg/injection, schedule: Q07DX005 (ip), vehicle: water) was 263 % of control and the T/C (endpoint: median tumor weight (est.), dose: 6.25 mg/kg/injection, schedule: Q07DX005 (ip), vehicle: water) was 82 % of control.
`O=NN(CCCl)C(=O)NC1[C@H](O)CCC[C@@H]1O` (some centres not stated) was tested, and the T/C (endpoint: median tumor weight change, dose: 6.25 mg/kg/injection, schedule: Q01DX001 (ip), vehicle: saline) was 71 % of control and 73 % of control, the T/C (endpoint: median tumor weight change, dose: 12.5 mg/kg/injection, schedule: Q01DX001 (ip), vehicle: saline) was 15 % of control and 17 % of control and the T/C (endpoint: median tumor weight change, dose: 25.0 mg/kg/injection, schedule: Q01DX001 (ip), vehicle: saline) was 6 % of control.
`CC(=O)OCC1OC(OC2=C(CC=C(C)C)C(=O)c3ccccc3C2=O)C(OC(C)=O)C(OC(C)=O)C1OC(C)=O` (configuration not stated) was tested, and the T/C [2] was 75 % of control and 98 % of control, the T/C [3] was 69 % of control and the T/C [4] was 113 % of control. The T/C (endpoint: median tumor weight (est.), dose: 200.0 mg/kg/injection, schedule: Q07DX005 (ip), vehicle: Klucel (hydroxypropylcellulose) (HPC)) was 107 % of control and the T/C (endpoint: median tumor weight (est.), dose: 400.0 mg/kg/injection, schedule: Q07DX005 (ip), vehicle: Klucel (hydroxypropylcellulose) (HPC)) was 79 % of control.
`C[C@@H]1C[C@H]2[C@@H]3CCC4=CC(=O)C=C[C@]4(C)[C@@]3(F)[C@@H](O)C[C@]2(C)[C@@]1(O)C(=O)CO` was tested, and the T/C [1] was 88 % of control, the T/C [2] was 32 % of control and the T/C [3] was 31 % of control. For the same molecule, the T/C (endpoint: median tumor weight (est.), dose: 50.0 mg/kg/injection, schedule: Q07DX005 (ip), vehicle: Klucel (hydroxypropylcellulose) (HPC)) was 12 % of control and the T/C [4] was 7 % of control.

Source: PubChem BioAssay AID220 (DTP/NCI, 2004)
